Results published in US20030232860A1, “Medicine comprising dicyanopyridine derivative” (priority 2000, published 2003).
Where a name gives a salt, the structure may show the parent alone.

Legend:
[1] = tested on: rat's removed bladder specimen; assay: Inhibition of the contraction of rat's removed bladder specimen (15 mM K+-induced contraction, organ bath); details: SD male rat bladder strips, dose giving 50% inhibition of contraction area
From the text: Since the inhibitory action is blocked by a known maxi-K channel blocker charybdotoxin or iberiotoxin, it is confirmed that the effect of the compounds of the invention is based on the maxi-K channel opening effect. Thus, the pharmacological effect of the compounds of the invention was confirmed according to the following method.
<Inhibitory Effect in Construction of the Rat's Removed Bladder Specimen>
In this experiment, SD-family male rats (9-13 weeks of age) were used. The rats were killed by bleeding under ether anesthesia, and the bladders were removed. The removed bladders were immediately washed in a Kiebs-Henseleit solution (NaCl 118.4, KCl 4.7, KH2PO4 1.2, MgSO4 1.2, CaCl2 2.5, NaHCO3 25.0, glucose 11.1 [mM], aeration with 95% O2/5% CO2 mixed gas) kept at 37° C., and prepared into rectangular specimens of about 10 mm long and about 2 mm width on a Petri dish filled with the Klebs-Henseleit solution. The respective specimens were ligated at the both ends with a cotton string via a wire hook, and the one end was fixed to an FD pick-up and the other hung down vertically in an organ bath filled with the Klebs-Henseleit solution. After completion of the operation, 1.0 g of static tensile stress was given to the respective slices, which were then allowed to stand for 1.5-2 hours to stabilize. Then, a KCl solution was added to the organ bath so that the final K^+ ion concentration become 15 mM to induce the contraction. Thereafter, the specimens were further allowed to stand for about 1-2 hours to stabilize, and the test was started. The contraction of the smooth muscle was measured isometrically through the FD pick-up, and the output signal was amplified through a strain stress amplifier to continuously record a chart on a pen recorder. At the same time, the respective contraction wave forms to be analyzed were recorded on a personal computer as magnetic data through an analogue/digital signal converter, and the under-area of the contraction was calculated by analytical software. The contraction 5 minutes immediately after the start of the test was regarded as the value before administration of the drug to be tested (100% reference value). The drug to be tested was added into the bath at intervals of 30 minutes, and the contraction for 5 minutes, respectively 25 minutes after the administration, was analyzed. The drug to be tested was administered at a common ratio of 3 or 10 accumulatively. The effect of the drug to be tested was represented by the dose by which 50% inhibition was attained to the value before the administration (100% reference value). Additionally, the wave form of contraction at the highest dose of the drug was recorded, and then a maxi-K channel selective blocker, charybdotoxin or iberiotoxin, was administered so that the final concentration in the organ bath became 100 nM. Thus, the effect of the drug was observed whether it was blocked or not.

[2] = tested on: rhythmic bladder contraction in rats under urethane anesthesia; assay: Rhythmic contraction of the bladder in rats under urethane anesthesia; assay type: in vivo, rat; details: urethane-anesthetized SD female rats, i.d.; for inhibition in vivo at 10 mg/kg: Rattus norvegicus, intraduodenal, up to 2 hours, read-out: Inhibition of frequency of the bladder contraction max % inhibition; for Frequency of Bladder Contraction Retention time of 50% Inhibition: 10 mg/kg
From the text: <Effect on the Rhythmic Contraction of the Bladder in Rats Under Urethane Anesthesia>
SD-Family female rats (about 300 g) were used. A catheter was inserted into the bladder through the external urethral orifice under urethane anesthesia and spontaneous breathing. The other end was connected to a pressure transducer and an infusion pump through a three-way cock. On the other hand, another catheter for measuring blood pressure was inserted into the right common carotid artery. Physiological saline warmed at about 38° C. was injected in the bladder at a rate of 4.2 ml/hr until rhythmical bladder contraction was induced. Change of the internal pressure in the bladder was continuously recorded on a recorder. After the rhythmical bladder contraction was stabilized, a test compound suspended in 0.5% methylcellulose aqueous solution was administered through a catheter which had been attached to the duodenum. Thus, frequency of the bladder contraction (every 10 minutes), force of bladder contraction and average blood pressure were observed as evaluation items up to 2 hours after administration of the test compound.

[3] = tested on: murine removed bladder smooth muscle; details: cited from earlier work
[4] = tested on: rhythmic vesical contraction in an anesthetized rat; details: cited from earlier work

SMILES | IC50 [1] [nM] | inhibition in vivo at 10 mg/kg [2] [%] | Frequency of Bladder Contraction Retention time of 50% Inhibition [2] [min] | melting point [°C] | other results
N#Cc1c(N)nc(OCCOC(=O)[C@@H](N)Cc2ccccc2)c(C#N)c1-c1ccccc1 [Example 15, 2-[(2-amino-3,5-dicyano-4-phenylpyridin-6-yl)oxy]ethyl (S)-2-amino-3-phenylpropanoate monohydrochloride monohydrate] | 2800 | 89 | 36 |  | 
COc1nc(N)c(C#N)c(-c2ccc(N)cc2)c1C#N.Cl.O [Example 20, 2-amino-(4-aminophenyl)-6-methoxypyridine-3,5-dicarbonitrile monohydrochloride monohydrate] | 110 | 86 | 40 |  | 
COc1nc(N)c(C#N)c(CC2CCCCC2)c1C#N [Example 150, 2-amino-4-cyclohexylmethyl-6-methoxypyridine-3,5-dicarbonitrile] | 1300 | 81 | 30 | 139 to 140 | 
COc1nc(N)c(C#N)c(-c2ccccc2F)c1C#N [Example 3, 2-amino-6-methoxy-4-(2-fluorophenyl)pyridine-3,5-dicarbonitril] | 230 | 97 | 39 | 240 to 241 | 
COc1nc(N)c(C#N)c(-c2cccs2)c1C#N [Example 1, 2-amino-6-methoxy-4-(2-thienyl)pyridine-3,5-dicarbo-nitrile] | 150 |  |  |  | 
COc1nc(NC(C)=O)c(C#N)c(-c2ccccc2F)c1C#N [Example 58, N-[3,5-dicyano-4-(2-fluorophenyl)-6-methoxypyridin-2-yl]acetamide] | 1400 | 93 | 46 | 192 to 193 | 
COc1nc(N)c(C#N)c(C2CCCCO2)c1C#N (centres unmarked) [Example 6, 2-amino-4-(2-tetrahydropyranyl)-6-methoxypyridine-3,5-dicarbonitrile] | 1300 | 65 | 39 | 134 to 135 | 
N#Cc1c(N)nc(OCC(F)F)c(C#N)c1-c1ccccc1F [Example 12, 2-amino-6-(2,2-difluoroethoxy)-4-(2-fluorophenyl)pyridine-3,5-dicarbonitrile] | 410 | 77 | 31 | 219 to 220 | 
COc1nc(N)c(C#N)c(Cc2ccccc2)c1C#N [Example 151, 2-amino-4-benzyl-6-methoxypyridine-3,5-dicarbonitrile] | 1000 | 71 | 26 | 215 to 216 | 
C#CCOc1nc(N)c(C#N)c(-c2ccccc2F)c1C#N [Example 11, 2-amino-4-(2-fluorophenyl)-6-(prop-2-yn-1-yloxy)pyridine-3,5-dicarbonitrile] | 410 | 87 | 27 | 205 to 206 | 
COc1nc(NC(=O)C(C)(C)C)c(C#N)c(-c2ccccc2F)c1C#N [Example 406, N-[3,5-dicyano-4-(2-fluorophenyl)-6-methoxypyridin-2-yl]-2,2-dimethylpropio namide] |  |  |  | 162 to 164 | 
COc1nc(N)c(C#N)c(-c2cccc(CO)c2)c1C#N [Example 34, 2-amino-4-[3-(hydroxymethyl)phenyl]-6-methoxypyridine-3,5-dicarbonitrile] |  |  |  | 218.5 to 219.5 | 
N#Cc1c(N)nc(OCCO)c(C#N)c1-c1ccccc1 [Example 13, 2-amino-6-(2-hydroxyethoxy)-4-phenylpyridine-3,5-dicarbonitrile] |  |  |  | 212 to 214 | 
COc1nc(NC(C)=O)c(C#N)c(-c2cccs2)c1C#N [Example 19, N-(3,5-dicyano-6-methoxy-4-thiophen-2-ylpyridin-2-yl)acetamide] |  |  |  | 230 to 233 | 
COc1nc(NC(=O)c2ccc3ccccc3c2)c(C#N)c(-c2ccccc2F)c1C#N [Example 411, N-[3,5-dicyano-4-(2-fluorophenyl)-6-methoxypyridin-2-yl]naphthalene-2-carbo xamide] |  |  |  | 227 to 230 | 
CCN(CC)CCOc1ccc(-c2c(C#N)c(N)nc(OC)c2C#N)cc1.Cl (hydrate or solvate) |  |  |  | 132 to 133 | 
CSc1nc(N)c(C#N)c(-c2cccc(N)c2)c1C#N.Cl |  |  |  | 277 to 278 | 
COc1nc(N)c(C#N)c(-c2ccc(N)cc2)c1C#N.Cl.O (hydrate or solvate) [Example 20, 2-amino-(4-aminophenyl)-6-methoxypyridine-3,5-dicarbonitrile monohydrochloride monohydrate] |  |  |  | > 300 | 
Cc1c(-c2ccccc2F)[nH]c(N)c1C#N [NS-8] | 1100 |  |  |  | Relaxant effect for the murine removed bladder smooth muscle [3]: exhibits a relaxant effect; Rhythmic vesical contraction [4]: makes rhythmic vesical contraction subsided
COc1nc(OC)c(C#N)c(-c2ccccc2)c1C#N [Example 358] |  |  |  | 157 to 159 | 
COc1nc(N)c(C#N)c(-c2cc(F)ccc2F)c1C#N [Example 126, 2-amino-4-(2,5-difluorophenyl)-6-methoxypyridine-3,5-dicarbonitrile] |  |  |  | 201 to 202 | 
COc1nc(OCCO)c(C#N)c(-c2ccccc2)c1C#N [Example 33, 2-(2-hydroxyethoxy)-6-methoxy-4-phenylpyridine-3,5-dicarbonitrile] |  |  |  | 170 to 172 | 
COc1nc(NC(=O)COc2ccccc2)c(C#N)c(-c2ccccc2F)c1C#N [Example 398, N-[3,5-dicyano-4-(2-fluorophenyl)-6-methoxypyridin-2-yl]-2-phenoxyacetamide] |  |  |  | 205 to 206 | 
N#Cc1c(N)nc(OCc2cccnc2)c(C#N)c1Cc1ccccc1 [Example 436, 2-amino-4-benzyl-6-(pyridin-3-ylmethoxy)pyridine-3,5-dicarbonitrile] |  |  |  | 204 to 205 | 
N#Cc1c(N)nc(OCCOC(=O)[C@@H](N)Cc2ccccc2)c(C#N)c1-c1ccccc1 (as salt: hydrochloride) (hydrate or solvate) [Example 15, 2-[(2-amino-3,5-dicyano-4-phenylpyridin-6-yl)oxy]ethyl (S)-2-amino-3-phenylpropanoate monohydrochloride monohydrate] |  |  |  | 161 to 162 | 
COc1nc(N)c(C#N)c(-c2ccccc2)c1C#N [Example 2] |  |  |  | 251 to 252 | 
